The results in this text go back to BindingDB's records for doi:10.1021/jm960128k (University of Illinois At Chicago, 1996).

This assay addresses T1, Dimer of Gag-Pol polyprotein [489-587] (Human immunodeficiency virus 1, UniProt P12497).
T1 construct: 489-587
In words: Protease Inhibition Assay. As to conditions: pH 5.5; 30 °C. The method, then: The IC50 values for the compounds were determined using purified HIV-1 Protease. Inhibition of the cleavage of the peptide H-Val-Ser-Gln-Asn-(L-beta-napthylalanine)-Pro-Ile-Val-OH was assessed at 30 °C, pH = 5.5 with [Enzyme] = 30 pM for 1 h, using HPLC with UV detection for quantification of the products. For the IC50 data a substrate concentration of 0.4 mg/mL was used, and data was fit to a four parameter sigmoidal equation.

Bounds are passed on as bounds.

As for `CC(C)(C)NC(=O)[C@@H]1C[C@@H]2CCCC[C@@H]2CN1C[C@@H](O)[C@H](Cc1ccccc1)NC(=O)O[C@@H]1CO[C@@H]2CCO[C@@H]21` [(3R,3aS,6aR)-hexahydrofuro[3,2-b]furan-3-yl N-[(2S,3R)-4-[(3S,4aS,8aS)-3-(tert-butylcarbamoyl)-decahydroisoquinolin-2-yl]-3-hydroxy-1-phenylbutan-2-yl]carbamate], the IC50 is more than 3 µM.
